≈ marks a conversion by molar mass, not a printed value. A value given as a limit tells only on which side of the number the result lay.

Our source for the MIC values is ChEMBL document CHEMBL1949621, “Fluorocyclines. 1. 7-fluoro-9-pyrrolidinoacetamido-6-demethyl-6-deoxytetracycline: a potent, broad spectrum antibacterial agent” (J Med Chem, 2012).

What all share (format): functional
The subject of experiment [1] is Staphylococcus aureus. The experiment is described as follows: Antibacterial activity against tetracycline- and methicillin-resistant Staphylococcus aureus 161.
Experiment [2] has as its system Escherichia coli. Description: Antibacterial activity against tetracycline-resistant Escherichia coli 155.
The subject of experiment [3] is Enterobacter cloacae. The experiment is described as follows: Antibacterial activity against Enterobacter cloacae ATCC 108 13047.
The subject of experiment [4] is Staphylococcus aureus. The experiment is described as follows: microbe, parasite or virus in culture. To be noted: 158.
The test system of experiment [5] is Streptococcus pneumoniae. The experiment is described as follows: microbe, parasite or virus in culture. To be noted: ATCC 106 49619.
Description: Antibacterial activity against Streptococcus pneumoniae ATCC 106 49619
In experiment [6] the test system is Pseudomonas aeruginosa. The experiment is described as follows: Antibacterial activity against Pseudomonas aeruginosa ATCC 111 27853.
The test system of experiment [7] is Klebsiella pneumoniae. The experiment is described as follows: Antibacterial activity against Klebsiella pneumoniae ATCC 109 13883.
Experiment [8] deals with Staphylococcus aureus. The experiment is described as follows: Antibacterial activity against Staphylococcus aureus ATCC 101 29213.
The test system of experiment [9] is Acinetobacter baumannii. The experiment is described as follows: Antibacterial activity against Acinetobacter baumannii ATCC 19606 110.
Experiment [10] deals with Klebsiella pneumoniae. Description: Antibacterial activity against tetracycline-resistant Klebsiella pneumoniae 153.
In experiment [11] the test system is Enterococcus faecalis. The experiment is described as follows: Antibacterial activity against tetracycline-resistant Enterococcus faecalis 159.
Experiment [12] relates to Escherichia coli. Description: Antibacterial activity against Escherichia coli ATCC 107 25922.
The subject of experiment [13] is Streptococcus pneumoniae. Description: Antibacterial activity against tetracycline-resistant Streptococcus pneumoniae 160.
Experiment [14] concerns Enterococcus faecalis. The experiment is described as follows: Antibacterial activity against Enterococcus faecalis ATCC 103 29212.

For the compound `CN(C)[C@@H]1C(O)=C(C(N)=O)C(=O)[C@@]2(O)C(O)=C3C(=O)c4c(O)c(NC(=O)CN5CC[C@H](F)C5)cc(F)c4C[C@H]3C[C@@H]12`, the MIC was 0.5 µg/mL (≈ 0.867 µM) in experiment [1]; 32 µg/mL (≈ 55.5 µM) in experiment [2]; 4 µg/mL (≈ 6.94 µM) in [3]; 1 µg/mL (≈ 1.73 µM) in [4]; 0.0156 µg/mL (≈ 0.0271 µM) in [5]; more than 32 µg/mL in experiment [6]. Further, the MIC in [7] was determined as 4 µg/mL (≈ 6.94 µM); in experiment [8], 0.25 µg/mL (≈ 0.434 µM); in [9] it was 0.125 µg/mL (≈ 0.217 µM); in experiment [10], 32 µg/mL (≈ 55.5 µM); in experiment [11] it was 0.25 µg/mL (≈ 0.434 µM); in experiment [12] it was 2 µg/mL (≈ 3.47 µM). The MIC in experiment [13] is 0.0156 µg/mL (≈ 0.0271 µM); in [14] it was 0.25 µg/mL (≈ 0.434 µM).
`CN(C)[C@@H]1C(O)=C(C(N)=O)C(=O)[C@@]2(O)C(O)=C3C(=O)c4c(O)c(NC(=O)CNc5cccnc5)cc(F)c4C[C@H]3C[C@@H]12`: the MIC is more than 32 µg/mL in experiment [1]; more than 32 µg/mL in experiment [2]; more than 32 µg/mL in experiment [3]; more than 32 µg/mL in experiment [4]; 0.25 µg/mL (≈ 0.43 µM) in experiment [5]; more than 32 µg/mL in experiment [6]. Also, the MIC in [7] was 32 µg/mL (≈ 55 µM); in experiment [8] it was 4 µg/mL (≈ 6.88 µM); in [9] it was more than 8 µg/mL; in experiment [10], more than 32 µg/mL; in experiment [11], more than 32 µg/mL; in [12], 16 µg/mL (≈ 27.5 µM). For the same compound, the MIC in [13] worked out at 2 µg/mL (≈ 3.44 µM); in [14], 8 µg/mL (≈ 13.8 µM).
As for `CN(C)[C@@H]1C(O)=C(C(N)=O)C(=O)[C@@]2(O)C(O)=C3C(=O)c4c(O)c(NC(=O)CNC(C)(C)C)cc(F)c4C[C@H]3C[C@@H]12`, the MIC turned out to be 0.25 µg/mL (≈ 0.446 µM) in [1]; 2 µg/mL (≈ 3.57 µM) in experiment [2]; 1 µg/mL (≈ 1.78 µM) in experiment [3]; 0.0625 µg/mL (≈ 0.111 µM) in experiment [4]; 0.0156 µg/mL (≈ 0.0278 µM) in experiment [5]; 16 µg/mL (≈ 28.5 µM) in [6]. For the same compound, the MIC in experiment [7] came to 1 µg/mL (≈ 1.78 µM); in [8], 0.125 µg/mL (≈ 0.223 µM); in experiment [9], 0.5 µg/mL (≈ 0.892 µM); in experiment [10], 2 µg/mL (≈ 3.57 µM); in experiment [11], 0.125 µg/mL (≈ 0.223 µM); in [12], 0.25 µg/mL (≈ 0.446 µM). Moreover, the MIC in experiment [13] came out at 0.0156 µg/mL (≈ 0.0278 µM); in experiment [14] it was 0.0625 µg/mL (≈ 0.111 µM).
Consider `CN(C)[C@@H]1C(O)=C(C(N)=O)C(=O)[C@@]2(O)C(O)=C3C(=O)c4c(O)c(NC(=O)CN5Cc6ccccc6C5)cc(F)c4C[C@H]3C[C@@H]12`, for which the MIC is 0.5 µg/mL (≈ 0.824 µM) in [1]; 4 µg/mL (≈ 6.59 µM) in [2]; 32 µg/mL (≈ 52.8 µM) in experiment [3]; 0.25 µg/mL (≈ 0.412 µM) in experiment [4]; 0.125 µg/mL (≈ 0.206 µM) in [5]; more than 32 µg/mL in experiment [6]. Further, the MIC in experiment [7] worked out at 4 µg/mL (≈ 6.59 µM); in experiment [8] it was 0.25 µg/mL (≈ 0.412 µM); in experiment [9] it was 0.125 µg/mL (≈ 0.206 µM); in experiment [10], 32 µg/mL (≈ 52.8 µM); in [11], 0.5 µg/mL (≈ 0.824 µM); in experiment [12], 2 µg/mL (≈ 3.3 µM). Besides, the MIC in [13] was found to be 0.125 µg/mL (≈ 0.206 µM); in experiment [14] it was 0.25 µg/mL (≈ 0.412 µM).
Take `CN(C)[C@@H]1C(O)=C(C(N)=O)C(=O)[C@@]2(O)C(O)=C3C(=O)c4c(O)c(NC(=O)CN5CC[C@@H](F)C5)cc(F)c4C[C@H]3C[C@@H]12`: the MIC in experiment [1] is 0.5 µg/mL (≈ 0.867 µM); in [2], 16 µg/mL (≈ 27.8 µM); in experiment [3] it was 8 µg/mL (≈ 13.9 µM); in experiment [4], 0.5 µg/mL (≈ 0.867 µM); in experiment [5] it was 0.0156 µg/mL (≈ 0.0271 µM); in experiment [6], more than 32 µg/mL. Also, the MIC in experiment [7] was 4 µg/mL (≈ 6.94 µM); in [8], 0.25 µg/mL (≈ 0.434 µM); in experiment [9] it was 0.25 µg/mL (≈ 0.434 µM); in experiment [10], 8 µg/mL (≈ 13.9 µM); in [11] it was 0.25 µg/mL (≈ 0.434 µM); in experiment [12] it was 1 µg/mL (≈ 1.73 µM). Besides, the MIC in [13] is 0.0156 µg/mL (≈ 0.0271 µM); in experiment [14], 0.125 µg/mL (≈ 0.217 µM).
As to `CN(C)[C@@H]1C(O)=C(C(N)=O)C(=O)[C@@]2(O)C(O)=C3C(=O)c4c(O)c(NC(=O)CNCC(F)(F)F)cc(F)c4C[C@H]3C[C@@H]12`, the MIC in [1] is 2 µg/mL (≈ 3.41 µM); in [2] it was more than 32 µg/mL; in experiment [3] it was more than 32 µg/mL; in experiment [4], 4 µg/mL (≈ 6.82 µM); in experiment [5], 0.5 µg/mL (≈ 0.853 µM); in experiment [6], more than 32 µg/mL. Further, the MIC was 32 µg/mL (≈ 54.6 µM) in [7]; 1 µg/mL (≈ 1.71 µM) in experiment [8]; more than 2 µg/mL in experiment [9]; more than 32 µg/mL in experiment [10]; 4 µg/mL (≈ 6.82 µM) in experiment [11]; more than 16 µg/mL in experiment [12]. For the same compound, the MIC in experiment [13] was found to be 1 µg/mL (≈ 1.71 µM); in experiment [14] it was 2 µg/mL (≈ 3.41 µM).
As to `CN(C)[C@@H]1C(O)=C(C(N)=O)C(=O)[C@@]2(O)C(O)=C3C(=O)c4c(O)c(NC(=O)CN5CC6CCCC6C5)cc(F)c4C[C@H]3C[C@@H]12` (stereo partly drawn), the MIC is 1 µg/mL (≈ 1.67 µM) in experiment [1]; 2 µg/mL (≈ 3.34 µM) in experiment [2]; 4 µg/mL (≈ 6.68 µM) in experiment [3]; 0.5 µg/mL (≈ 0.835 µM) in experiment [4]; 0.125 µg/mL (≈ 0.209 µM) in [5]; more than 32 µg/mL in experiment [6]. In addition, the MIC in experiment [7] stood at 2 µg/mL (≈ 3.34 µM); in experiment [8] it was 0.5 µg/mL (≈ 0.835 µM); in experiment [9] it was 0.06 µg/mL (≈ 0.1 µM); in [10] it was 4 µg/mL (≈ 6.68 µM); in [11], 0.5 µg/mL (≈ 0.835 µM); in experiment [12], 1 µg/mL (≈ 1.67 µM). The results for the MIC in experiment [13] and in [14] were 0.06 µg/mL (≈ 0.1 µM) and 0.25 µg/mL (≈ 0.418 µM), respectively.
